Here are results for 13 molecules from patent US10350219B2, “Antimicrobial compositions and methods of making the same” (priority 2013, dated 2019).

Data set [1] is described as follows: Steam sterilization (thermal stability, discoloration). The format is physicochemical. Conditions: hydrogel.
Protocol: (b) Steam Sterilization • One steam sterilization cycle was imposed on gel prototypes to evaluate their ability to withstand elevated temperatures. The gel samples contained in 15 ml or 50 ml PP tubes or other non-hydrogel prototypes (in sealed foil pouches) were examined post sterilization for any adverse temperature effect on its color, viscosity, texture, phase separation etc.
A majority of the hydrogel prototypes of the present disclosure were tested for their ability to withstand elevated temperatures simply by subjecting them to one steam sterilization cycle. The test samples experienced temperature rises from 20 C to 122 C over 15 min, followed by constant temperature of 122 C for 15 min and finally a cool down from 122 C to ˜40 C over 3 h. Thus, the test samples experienced nearly 3.5 h of hostile temperature condition.
“Steam sterilizable” or “heat stable” or “inert to heat” is defined as having no visible sign of discoloration (color change following exposure that will add shade of black, brown, yellow or purple) after one steam sterilization cycle (122 C for 15 min) that includes periods of warming up and final cool down to room temperature (<40 C).
Data set [2] in a line: Table Lamp Light Exposure Test (TLE), discoloration. The format is physicochemical. As to conditions: gel with glycerol 10%, clay 4%, silver 0.054% weight; for Gel color after continuous light exposure: After 24 h: 60 W table lamp; for Gel color after continuous light exposure: Fresh: 60 W table lamp at 1 to 1.5 feet.
Protocol: (a) Table Lamp Light Exposure Test (TLE) • The samples of the said compositions contained in either glass vials or 15 ml PP tubes (BD Falcon) were placed under a table lamp (turned on) at a distance of 12 to 15 inches for continuous exposure. The incandescent lamp wattage was 60 W. After the desired duration of exposure, the test samples were examined for visible discoloration by holding it against a white plain paper. Non-hydrogel samples were examined against the control samples protected from light.
In a further data set the test system is rats. Conditions: cited from earlier work.
Setting [3] is: theor. silver content 110 ppm, ratio of cyanurate/silver ions 5.
Setting [4] is: theor. silver content 220 ppm, ratio of cyanurate/silver ions 2.5.

As for `O=c1[n-]c(=O)[nH]c(=O)[nH]1.O=c1[n-]c(=O)[nH]c(=O)[nH]1.[Ag+].[Na+]` [Na[Ag(C3N3O3H2)2], Sodium silver cyanurate ligand complex Na[Ag(C3N3H2O3)2] or its hydrate], in data set [1] (setting [3]), the “Color after steam sterilization” value is given as “No discoloration” and the “Color before steam sterilization” value is recorded as “Hazy to clear”. Also, in data set [1] (setting [4]), the “Color after steam sterilization” value was “No discoloration” and the “Color before steam sterilization” value is “Hazy to clear”.

Take `O=C([O-])c1ccccc1.[Ag+]` [Silver Benzoate]: the “Gel color after continuous light exposure: After 24 h” value (“Gel color … After 24 h” for short) in data set [2] is recorded as “Brown black”.

Take `O=C([O-])CO.[Ag+]` [Silver Glycolate]: in data set [2], the “Gel color … After 24 h” value is on record as “Brown grey”. Same read-out and setting: the value for `C=C(CC(=O)[O-])C(=O)[O-].[Ag+].[Ag+]` [Silver Itaconate] was “Brown black”. For the molecule `O=C([O-])/C=C\C(=O)O.[Ag+]` [Silver Mono-maleate], in data set [2], the “Gel color after continuous light exposure: Fresh” value (“Gel color … Fresh” for short) is listed as “Smooth hazy gel” and the “Gel color … After 24 h” value was “Brown yellow”. Taken in the same sequence, the figures for `O=C([O-])C(O)C(O)C(=O)O.[Ag+]` (centres unmarked) [Silver Mono-tartrate] were “Hazy gel” and “Brown black”. Take `CCC(=O)[O-].[Ag+]` [Silver Propionate]: the “Gel color … After 24 h” value in data set [2] is listed as “Brown black”. On to `O=C1[N-]S(=O)(=O)c2ccccc21.[Ag+]` [Silver Saccharinate], for which the “Gel color … Fresh” value in data set [2] is given as “Yellow brown”. As to `O=C(O)c1ccccc1` [benzoic acid], in the data set on rats, the LD50 is 2530 mg/kg of body weight. On to `O=c1[nH]c(=O)[nH]c(=O)[nH]1` [cyanuric acid], for which the LD50 with rats is reported as 7700 mg/kg of body weight. Also, the “lethal dose LD50” value in the data set on rats (internet source) is listed as 7.70 g/kg of body weight. On to Silver Benzene sulfonate, for which, in data set [2], the “Gel color … Fresh” value was “Brown after 0.5 h” and the “Gel color … After 24 h” value is listed as “Brown black”. As to Silver Gluconate, in data set [2], the “Gel color … After 24 h” value is “Brown black”. Still for that read-out and setting: the result for Silver Sorbate reads “Brown black”.
